From US20260284240A1, “RADIOLABELED COMPOUND FOR USE IN A METHOD OF TREATING CARBONIC ANHYDRASE IX POSITIVE DISEASES” (DEBIOPHARM INTERNATIONAL S.A., priority 2023, published 2026)
Like-named read-outs stand apart in the source and are kept apart here. Starred links: 1 amine or outer side, 2 acyl side, 3 side chain; linkers in the order of their positions; H or OH if unused. Positions of bridges follow the written chain, without caps; N, C: chain ends. Non-standard residues stand in square brackets, D forms with d. Residues, ends and D or L forms follow the SMILES beside them. *: point of attachment. Phe(3-NHCO(CH2)3SO2NH2) = N[C@@H](Cc1cccc(NC(=O)CCCS(N)(=O)=O)c1)C(=O)O; DOTA = O=C(O)CN1CCN(CC(=O)O)CCN(CC(=O)*)CCN(CC(=O)O)CC1; mXylylene = c1cc(C[*:1])cc(C[*:2])c1; X1 = O=C(CN1CCN([*:1])CC1)[*:2]

What was measured:
[1] = Biodistribution of In-111-labeled compounds by SPECT/CT in SK-RC-52 tumor-bearing mice, with or without gelofusine; format: in vivo, mouse; details: mouse, in vivo
Description: (§1) The effect on tumor uptake of prior injection of gelofusine for kidney protection was investigated in mice bearing the SK-RC-52 tumor. Biodistribution was evaluated using in vivo SPECT/CT imaging.
(§2) The study was performed in female NMRI nude mice (approximately 6 weeks of age) from Janvier Labs, France, housed up to 5 mice per cage.
(§3) The column was washed with 2 mL water, and then the final product was eluted from the column in EtOH solution (50%) • The sample was formulated in PBS to the final concentration of 150 MBq/mL and 5 nmol/mL.
(§4) HT-29 cells were cultured in McCoy's 5a Medium Modified (Sigma #M9309). For inoculation of HT-29 cells, cells were harvested, washed twice in PBS and resuspended at 5×10^7 cells/mL in PBS. Cells were kept on ice until inoculation.
(§5) Animals were anaesthetized (isoflurane, 2-4% in ambient air supplemented with 100% O2) prior to tumor inoculation. The tumor cells (100 μL suspension of either SK-RC-52 cells (2×10^6 cells/animal) or HT-29 cells (5×10^6 cells/animal)) were subcutaneously inoculated in the right flank using a 1-mL syringe equipped with a 27G needle. Tumor growth and animal weight were measured twice per week. Tumor size was measured by caliper and the volume was estimated using the following formula: 0.52×(length×width^2). When tumor sizes reached 150-250 mm^3, animals were randomized into groups (n=3) of similar average tumor volume and body weight.
(§6) CT was performed with helical scan, 300 ms exposure, reconstruction resolution of 250 μm. SPECT was performed with multi-pinhole scan and a 30 s frame time. For the quantification of the radioactivity uptake, regions of interests (ROIs) were drawn over the tumor, kidney, liver, and heart (estimate of blood) identified on the images. Uptake was expressed as percent of injected dose per gram tissue (% ID/g).

[2] = tested on: SK-RC-52 tumor; test: as above; format: in vivo, mouse
Description: as §1, §2, §3, §4, §5, §6

[3] = Functional observation battery (FOB), central nervous system, in dogs; format: in vivo; details: dog, FOB 1 hour after dosing
Text: The test item treatment led to unaffected body weights, weight gains, and food intake. Likewise, no treatment-related abnormalities were reported during ophthalmic examinations, urinalysis, blood biochemistry, coagulation, and hematology investigations. There were no related organ weight changes and macroscopic and microscopic observations at early and late necropsies. Jacketed external telemetry was used to evaluate the potential cardiovascular and respiratory effects in the Subset B. Cardiorespiratory telemetry recordings were performed during the pre-test, Day 1 and 14. […] Arterial blood pressure parameters (systolic and diastolic blood pressure and mean arterial pressure) were measured continuously during consecutive 30-minute periods at pre-dose and for up to 6 h after dosing and over consecutive 60-minute periods up to 24 h after dosing. The respiratory rate was monitored on the pre-test, Day 1 and Day 14 at 0.5, 1, 2, 3, 4, 6, 8, 12, 16, 20, and 24 h. […] The potential effects on central nervous system parameters were evaluated under restrained and non-restrained conditions using a FOB in Subset A. Neurologic, autonomic, and behavioral investigations were performed in the pre-test, pre-dose, and 1 hour after dosing on Day 1.

[4] = Allometric prediction of human PK parameters from mouse and dog PK; details: allometry from mouse and dog
Description: From the variety of CL, Vd and T1/2 determined in the animal studies, the highest and lowest values for each species were retained, and allometry was conducted on all the combinations to obtain a range for each predicted human PK parameter.

[5] = Pharmacokinetics after single i.v. dose in healthy male beagle dogs; format: in vivo; details: dog; for concentration at 24 h / dose excreted at 24 h: iv; for concentration at 24 h: 24 h urine, read-out: Mean amount of unchanged compound excreted in urine; for dose excreted at 24 h: urine, read-out: Dose excreted unchanged in urine
Description: The pharmacokinetics of DPI-4452 after a single intravenous (i.v.) dose was investigated in healthy dogs. […] Plasma and urine samples collected after dosing were analyzed using a LC-HRMS (liquid chromatography coupled with high-resolution mass spectrometry) assay method. Concentration values were used for pharmacokinetic calculations.
DPI 4452 was formulated in 0.1 M HEPES pH 7.0 at the final concentrations of 0.05 and 0.4 mg/mL for dosing at 0.1 and 0.8 mg/kg, respectively. Male beagle dogs (3 animals per dose level; overall 8.9 to 12.4 kg body weight) were administered intravenously (bolus) in a 2 mL/kg dosing volume. Blood samples were collected in K2EDTA tubes at 5 min, 15 min, 30 min, 1 h, 2 h, 4 h, 6 h, 24 h, and urine was collected over 24 hours post dose. The blood samples were kept on wet ice until plasma separation by centrifugation within 60 min after sampling. The plasma samples were transferred into plastic tubes, frozen and stored at −80° C. until analysis.
Plasma and urine samples were analyzed by LC-HRMS after solid phase extraction, using DPI-4501 as internal standard. Chromatographic separation was run on a Waters Acquity HSS T3 C18 2.1×50 mm, 1.8 μm column. Detection was achieved on a Sciex AP16600 TOF mass spectrometer. The lower limit of quantification was 2.00 ng/mL in urine and plasma.
The NCA pharmacokinetic analysis of plasma concentration data was conducted using Phoenix WinNonlin 6.3 software. Nominal doses were used for all animals. The terminal phase half-life (T1/2) was calculated by least-squares regression analysis of the terminal linear part of the log concentration-time curve. The area under the plasma concentration-time curve (AUC) was determined with the linear trapezoidal rule for increasing values and log trapezoidal rule for decreasing values up to the last measurable concentration.

CC(C)C[C@@H]1NC(=O)[C@H](Cc2cccc(NC(=O)CCCS(N)(=O)=O)c2)NC(=O)[C@H](CC(=O)O)NC(=O)[C@H]2CCCN2C(=O)[C@H](CCC(=O)O)NC(=O)[C@@H](NC(=O)[C@H](CCC(N)=O)NC(=O)CN2CCN(C(=O)CN3CCN(CC(=O)O)CCN(CC(=O)O)CCN(CC(=O)O)CC3)CC2)CSCc2cccc(c2)CSC[C@@H](C(N)=O)NC(=O)[C@H](CO)NC(=O)[C@H](Cc2c[nH]c3ccccc23)NC(=O)[C@H]([C@@H](C)O)NC1=O [DPI-4452, DOTA-PPAc-Gln-[Cys(3MeBn)-Glu-pro-Asp-Af3(Cpsu)-Leu-Thr-Trp-Ser-Cys]-NH2] ({DOTA}-[X1]QCE[dP]D[Phe(3-NHCO(CH2)3SO2NH2)]LTWSC-NH2; linker 3-12 via mXylylene)
tissue uptake ([1]; SK-RC-52, Mean ± SEM, N=3, read-out: Peak Tumor Uptake): 9.42 ± 1.53 %ID/g
tissue uptake ([1]; SK-RC-52 mice, read-out: Peak Kidney uptake): 3.43 ± 0.24 %ID/g
Time to peak uptake in tumor ([2]; SK-RC-52): 1 h
% remaining tumor uptake at 24 h p.i. ([2]; SK-RC-52, Mean ± SEM): 73.3 ± 0.8%
Blood uptake at 4 h p.i. ([2]; SK-RC-52 mice): 0.05 ± 0.01 % ID/g
Kidney uptake at 24 h p.i. ([2]; SK-RC-52 mice): 0.95 ± 0.05 % ID/g
Liver uptake at 4 h p.i. ([2]; SK-RC-52 mice): 0.18 ± 0.04 % ID/g
Central nervous system (neurologic, autonomic, behavioral domains) [3]: No effects were observed on the central nervous system
Predicted human clearance (CL) [4]: 3.57 to 13.0 mL/min/kg
Predicted human terminal half-life (T1/2) [4]: 10.2 to 88.2 min
Predicted human volume of distribution (Vd) [4]: 189 to 455 mL/kg
Time up to which plasma concentration was quantifiable ([5]; i.v. 0.1 mg/kg): up to 2 h
Time up to which plasma concentration was quantifiable ([5]; i.v. 0.8 mg/kg): ≤ 4 h
concentration at 24 h ([5]; i.v. 0.1 mg/kg): 26.8 ng/mL
concentration at 24 h ([5]; i.v. 0.8 mg/kg): 191 ng/mL
dose excreted at 24 h ([5]; i.v. 0.1 mg/kg): 0.29%
dose excreted at 24 h ([5]; i.v. 0.8 mg/kg): 0.14%
